The text below walks through data of BindingDB's records for doi:10.1021/jm00063a003 (Merck Sharp and Dohme Research Laboratories, 1993).

This experiment in a line: Displacement of [3H]mesulergine from pig cortex 5-hydroxytryptamine 1C receptor. In general terms: Loss of bound radioactivity is the signal in a displacement assay; it reports binding, not function.
With `NCCc1c[nH]c2ccc(Cc3nc(N)no3)cc12`, the IC50 (in general, the concentration that gives 50% inhibition) is 3.16 µM.
`CC(=O)Nc1ccc(Cc2noc(-c3ccc4[nH]cc(CCN)c4c3)n2)cc1`: the IC50 came out at 1.58 µM.
With `COc1ccc(Cc2noc(-c3ccc4[nH]cc(CCN)c4c3)n2)cc1` the figure was 0.794 µM.
To `NCCc1c[nH]c2ccc(-c3nc(C4CC4)no3)cc12` belongs 1 µM.
To `CN(C)CCc1c[nH]c2ccc(Cc3nc(N)ns3)cc12` belongs 0.251 µM; to `NCCc1c[nH]c2ccc(CCc3nc(Cc4ccccc4)no3)cc12`, 0.794 µM; to `Cc1noc(-c2ccc3[nH]cc(CCN)c3c2)n1`, 1.26 µM.
`NCCc1c[nH]c2ccc(-c3nc(Cc4ccccc4)no3)cc12` registered an IC50 of 3.98 µM.
As to `Cc1noc(Cc2ccc3[nH]cc(CCN(C)C)c3c2)n1`, the IC50 came out at 1 µM.
With `Cc1noc(Cc2ccc3[nH]cc(CCN)c3c2)n1` the figure was 1.26 µM.
To `CN(C)CCc1c[nH]c2ccc(CCc3nc(N)no3)cc12` belongs 1 µM.
Consider `CS(=O)(=O)Nc1ccc(Cc2noc(-c3ccc4[nH]cc(CCN)c4c3)n2)cc1` [L-694247], for which the IC50 is 0.316 µM.
